# Source: PubChem BioAssay AID314 (DTP/NCI, 2004)
# Where “and” joins values, the source holds several entries; their conditions need not be identical. Identical values can stand only once. Toxic doses and inconclusive results are not listed.
# Tested on: DBA/2 mice, P1534 leukemia ip, survival T/C
# Test: NCI In Vivo Anticancer Drug Screen. Data for tumor model P1534 Leukemia (intraperitoneal) in DBA/2 mice
# Conditions: endpoint: mean survival time, higher = longer survival
# Procedure: The antitumor activity of compounds was measured in mice bearing transplantable tumors. Survival or tumor size were measured and the results are expressed as the measurement made in the treated group (T) divided by the measurement made in the vehicle treated control group (C). The tumor model used in this assay is P1534 Leukemia (intraperitoneal) in DBA/2 mice
# [1] = dose: 1.0 mg/kg/injection, schedule: Q01DX010 (ip), vehicle: saline
# [2] = dose: 2.0 mg/kg/injection, schedule: Q01DX010 (ip), vehicle: saline
# [3] = dose: 4.0 mg/kg/injection, schedule: Q01DX010 (ip), vehicle: saline
# [4] = dose: 5.0 mg/kg/injection, schedule: Q01DX010 (ip), vehicle: saline
# [5] = dose: 10.0 mg/kg/injection, schedule: Q01DX010 (ip), vehicle: saline
# [6] = dose: 20.0 mg/kg/injection, schedule: Q01DX010 (ip), vehicle: saline
# [7] = dose: 100.0 mg/kg/injection, schedule: Q01DX010 (ip), vehicle: saline
# [8] = dose: 1.25 mg/kg/injection, schedule: Q01DX010 (ip), vehicle: saline
# [9] = dose: 2.5 mg/kg/injection, schedule: Q01DX010 (ip), vehicle: saline
# [10] = dose: 6.25 mg/kg/injection, schedule: Q01DX010 (ip), vehicle: saline
# [11] = dose: 12.5 mg/kg/injection, schedule: Q01DX010 (ip), vehicle: saline
# [12] = dose: 25.0 mg/kg/injection, schedule: Q01DX010 (ip), vehicle: saline
# [13] = dose: 50.0 mg/kg/injection, schedule: Q01DX010 (ip), vehicle: saline
# [14] = dose: 3.13 mg/kg/injection, schedule: Q01DX010 (ip), vehicle: saline
# [15] = dose: 15.6 mg/kg/injection, schedule: Q01DX010 (ip), vehicle: saline
# [16] = dose: 31.3 mg/kg/injection, schedule: Q01DX010 (ip), vehicle: saline
# [17] = dose: 62.5 mg/kg/injection, schedule: Q01DX010 (ip), vehicle: saline
# [18] = dose: 8.0 mg/kg/injection, schedule: Q01DX010 (ip), vehicle: saline
# [19] = dose: 125.0 mg/kg/injection, schedule: Q01DX010 (ip), vehicle: saline
# [20] = dose: 250.0 mg/kg/injection, schedule: Q01DX010 (ip), vehicle: saline
# [21] = dose: 500.0 mg/kg/injection, schedule: Q01DX010 (ip), vehicle: saline
# [22] = dose: 32.0 mg/kg/injection, schedule: Q01DX010 (ip), vehicle: saline
compound,measurement,setting,value
N=[N+]=CC(=O)OCC(N)C(=O)O (stereo not given),T/C,"dose: 0.5 mg/kg/injection, schedule: Q01DX010 (ip), vehicle: saline",94 % of control
same,T/C,[1],103 % of control and 120 % of control
same,T/C,[2],120 % of control and 123 % of control
same,T/C,[3],117 % of control
CC(=O)O[C@]1(C(C)=O)CC[C@H]2[C@@H]3C[C@H](C)C4=CC(=O)C=C[C@]4(C)[C@@]3(F)[C@@H](O)C[C@@]21C,T/C,"dose: 12.5 mg/kg/injection, schedule: Q01DX010 (sc), vehicle: steriod suspending solution",88 % of control
Cn1c(N)nc2nc[nH]c2c1=S,T/C,[4],100 % of control
same,T/C,[5],100 % of control
same,T/C,[6],100 % of control
same,T/C,"dose: 40.0 mg/kg/injection, schedule: Q01DX010 (ip), vehicle: saline",100 % of control
OC(CBr)C(O)C(O)C(O)CBr (stereo not given),T/C,[7],100 % of control
COC(=O)C1C(O)CCC2CN3CCc4c([nH]c5ccccc45)C3CC21 (stereo not given),T/C,"dose: 0.31 mg/kg/injection, schedule: Q01DX010 (ip), vehicle: saline",103 % of control
same,T/C,"dose: 0.63 mg/kg/injection, schedule: Q01DX010 (ip), vehicle: saline",103 % of control
same,T/C,[8],106 % of control
same,T/C,[9],103 % of control
COC1C(OC(N)=O)C(O)C(Oc2ccc3c(O)c(NC(=O)c4ccc(O)c(CC=C(C)C)c4)c(=O)oc3c2C)OC1(C)C (stereo not given),T/C,[10],100 % of control
same,T/C,[11],104 % of control
same,T/C,[12],100 % of control
same,T/C,[13],103 % of control and 104 % of control
same,T/C,[7],96 % of control
same,T/C,"dose: 200.0 mg/kg/injection, schedule: Q01DX010 (ip), vehicle: saline",92 % of control
NC(=O)c1ccc(N)nc1,T/C,"dose: 3.0 mg/kg/injection, schedule: Q01DX010 (ip), vehicle: saline",90 % of control
O=c1[nH]c(=O)n(C2CC(O)C(CO)O2)cc1F (stereo not given),T/C,[9],107 % of control and 111 % of control
same,T/C,[4],111 % of control
same,T/C,[6],153 % of control
same,T/C,"dose: 37.5 mg/kg/injection, schedule: Q01DX010 (ip), vehicle: saline",169 % of control
Oc1cc(CN(CCCl)CCCl)c(O)cc1CN(CCCl)CCCl,T/C,[9],117 % of control
CCc1c(CC(=O)O)c2cc(C)ccc2n1Cc1ccc(Cl)cc1,T/C,[14],103 % of control
same,T/C,[10],107 % of control
same,T/C,[11],103 % of control
CN(C)Cc1c[nH]c2ccccc12,T/C,[15],100 % of control
same,T/C,[16],100 % of control
C1CCNC1,T/C,"dose: 0.19 mg/kg/injection, schedule: Q01DX010 (ip), vehicle: saline",93 % of control
same,T/C,"dose: 0.39 mg/kg/injection, schedule: Q01DX010 (ip), vehicle: saline",86 % of control
same,T/C,"dose: 1.56 mg/kg/injection, schedule: Q01DX010 (ip), vehicle: saline",96 % of control
Nc1ncccc1C(=O)O,T/C,[17],89 % of control
CN(C)c1nc(N(C)C)nc(N(C)C)n1,T/C,"dose: 9.4 mg/kg/injection, schedule: Q01DX010 (ip), vehicle: saline",103 % of control and 111 % of control
same,T/C,"dose: 150.0 mg/kg/injection, schedule: Q01DX010 (ip), vehicle: saline",103 % of control and 107 % of control
Nc1nc(=S)c2ncn(C3OC(CO)C(O)C3O)c2[nH]1 (stereo not given),T/C,"dose: 0.25 mg/kg/injection, schedule: Q01DX010 (ip), vehicle: saline",110 % of control
same,T/C,[1],96 % of control
same,T/C,[2],89 % of control
COC(=O)c1[nH]c(=O)[nH]c(=O)c1F,T/C,[1],103 % of control
same,T/C,[3],93 % of control
Cc1cc(N(CCCl)CCCl)ccc1N=Nc1ccccc1C(=O)O,T/C,[4],114 % of control and 123 % of control
same,T/C,[5],118 % of control
same,T/C,[6],107 % of control and 111 % of control
O=C1C=CC2(CCC23C=CC(=O)O3)O1 (stereo not given),T/C,[10],100 % of control
same,T/C,[11],100 % of control
same,T/C,[12],106 % of control
same,T/C,[13],86 % of control and 110 % of control
NC(Cc1ccc(N(CCCl)CCCl)cc1)C(=O)O (stereo not given),T/C,"dose: 0.5 mg/kg/injection, schedule: Q01DX010 (ip), vehicle: alkali diluted with saline",102 % of control and 111 % of control
same,T/C,"dose: 1.0 mg/kg/injection, schedule: Q01DX010 (ip), vehicle: alkali diluted with saline",104 % of control
same,T/C,[8],100 % of control and 119 % of control
same,T/C,"dose: 2.0 mg/kg/injection, schedule: Q01DX010 (ip), vehicle: alkali diluted with saline",99 % of control
same,T/C,[9],100 % of control
same,T/C,"dose: 4.0 mg/kg/injection, schedule: Q01DX010 (ip), vehicle: alkali diluted with saline",101 % of control
same,T/C,[4],100 % of control
N=C(N)SCc1c2ccccc2c(CSC(=N)N)c2ccccc12,T/C,[4],100 % of control
same,T/C,[5],96 % of control
CC(CCC(C)OS(C)(=O)=O)OS(C)(=O)=O (stereo not given),T/C,[2],96 % of control and 103 % of control
same,T/C,[3],100 % of control and 107 % of control
same,T/C,[18],96 % of control and 100 % of control
O=C(Nc1ccc(C2=NCCN2)cc1)c1cc(Cl)cc(C(=O)Nc2ccc(C3=NCCN3)cc2)c1,T/C,"dose: 140.0 mg/kg/injection, schedule: Q01DX010 (ip), vehicle: saline",96 % of control and 100 % of control
same,T/C,"dose: 210.0 mg/kg/injection, schedule: Q01DX010 (ip), vehicle: saline",92 % of control and 107 % of control
same,T/C,"dose: 315.0 mg/kg/injection, schedule: Q01DX010 (ip), vehicle: saline",96 % of control and 115 % of control
same,T/C,"dose: 473.0 mg/kg/injection, schedule: Q01DX010 (ip), vehicle: saline",103 % of control and 111 % of control
COc1cc2c3c(c4ccc(OC)c(OC)c4c2cc1OC)CN1CCC[C@@H]1C3,T/C,[9],88 % of control
same,T/C,[5],92 % of control and 107 % of control
same,T/C,"dose: 15.0 mg/kg/injection, schedule: Q01DX010 (ip), vehicle: saline",96 % of control and 121 % of control
S=P(N1CCOCC1)(N1CC1)N1CC1,T/C,[8],100 % of control and 103 % of control
same,T/C,[9],92 % of control and 100 % of control
COc1ccc2[nH]c3c(C)c4ccncc4c(C)c3c2c1,T/C,[9],100 % of control
same,T/C,[4],93 % of control
same,T/C,[5],103 % of control
same,T/C,[6],117 % of control
O=c1[nH]c(=O)n(C2CC(O)C(CO)O2)cc1I (stereo not given),T/C,[19],103 % of control and 107 % of control
same,T/C,[20],103 % of control and 110 % of control
same,T/C,[21],107 % of control and 114 % of control and 121 % of control
same,T/C,"dose: 1000.0 mg/kg/injection, schedule: Q01DX010 (ip), vehicle: saline",110 % of control
CCNc1nncs1,T/C,[15],100 % of control
same,T/C,[16],100 % of control
CC1CCOS(=O)O1 (stereo not given),T/C,[5],92 % of control
same,T/C,[6],92 % of control
Nc1nc(SCc2ccccc2)c2[nH]cnc2n1,T/C,[18],92 % of control and 100 % of control
same,T/C,"dose: 16.0 mg/kg/injection, schedule: Q01DX010 (ip), vehicle: saline",100 % of control
same,T/C,[16],88 % of control
same,T/C,[22],100 % of control and 103 % of control
CCCCn1cnc2c(=S)nc[nH]c21,T/C,[22],96 % of control
same,T/C,"dose: 64.0 mg/kg/injection, schedule: Q01DX010 (ip), vehicle: saline",92 % of control and 96 % of control
same,T/C,"dose: 128.0 mg/kg/injection, schedule: Q01DX010 (ip), vehicle: saline",96 % of control and 100 % of control
c1ccc(CCSc2ncnc3nc[nH]c23)cc1,T/C,[19],100 % of control
same,T/C,[20],100 % of control
same,T/C,[21],104 % of control
Nc1nc2n[nH]nc2c(=O)[nH]1,T/C,"dose: 3.0 mg/kg/injection, schedule: Q01DX010 (ip), vehicle: alkali diluted with saline",100 % of control and 115 % of control
same,T/C,"dose: 6.0 mg/kg/injection, schedule: Q01DX010 (ip), vehicle: alkali diluted with saline",100 % of control and 111 % of control
same,T/C,"dose: 12.0 mg/kg/injection, schedule: Q01DX010 (ip), vehicle: alkali diluted with saline",107 % of control and 113 % of control
CC[C@]1(O)C[C@H]2CN(CCc3c([nH]c4ccccc34)[C@@](C(=O)OC)(c3cc4c(cc3OC)N(C=O)[C@H]3[C@@](O)(C(=O)OC)[C@H](OC(C)=O)[C@]5(CC)C=CCN6CC[C@]43[C@@H]65)C2)C1,T/C,"dose: 15.6 micrograms/kg/injection, schedule: Q01DX010 (ip), vehicle: saline",117 % of control
same,T/C,"dose: 31.3 micrograms/kg/injection, schedule: Q01DX010 (ip), vehicle: saline",114 % of control
CS(=O)(=O)OCCC(=O)N1CCN(C(=O)CCOS(C)(=O)=O)CC1,T/C,[14],107 % of control
same,T/C,[10],103 % of control
same,T/C,[11],119 % of control
same,T/C,[12],120 % of control
C[C@H]1C(=O)O[C@@H]2CCN3CC=C(COC(=O)[C@](C)(O)[C@@]1(C)O)[C@H]23,T/C,[14],100 % of control and 117 % of control
same,T/C,[10],96 % of control and 107 % of control
same,T/C,[11],96 % of control and 107 % of control
same,T/C,[12],100 % of control
O=c1[nH]c(=O)n(C2CC(O)C(CO)O2)cc1Br (stereo not given),T/C,[17],121 % of control
same,T/C,[19],107 % of control
same,T/C,[20],96 % of control
CSc1ncnc2nc[nH]c12,T/C,[11],92 % of control
same,T/C,[7],100 % of control
